In patent US7101906B2, “2,3,4-substituted cyclopentanones as therapeutic agents” (Allergan, Inc., priority 2004, dated 2006):

Tests used:
hEP4/Gqs5 = biological target: T1, hEP4/Gqs5 (Homo sapiens, UniProt P35408); experiment: FLIPR calcium signal, hEP4/Gqs5; assay type: cell-based; details: HEK-293(EBNA) cells, read-out: Functional EC50 (nM) HEP4
T1 construct: expressed in transfected cells
Description: (§1) HEK-293(EBNA) cells, stably expressing one type or subtype of recombinant human prostaglandin receptors (prostaglandin receptors expressed: hDP/Gqs5; hEP1; hEP2/Gqs5; hEP3A/Gqi5; hEP4/Gqs5; hFP; hIP; hTP), were cultured in 100 mm culture dishes in high-glucose DMEM medium containing 10% fetal bovine serum, 2 mM 1-glutamine, 250 μg/ml geneticin (G418) and 200 μg/ml hygromycin B as selection markers, and 100 units/ml penicillin G, 100 μg/ml streptomycin and 0.25 μg/ml amphotericin B.
(§2) Cells were seeded at a density of 5×10^4 cells per well in Biocoat® Poly-D-lysine-coated black-wall, clear-bottom 96-well plates (Becton-Dickinson) and allowed to attach overnight in an incubator at 37° C. Cells were then washed two times with HBSS-HEPES buffer (Hanks Balanced Salt Solution without bicarbonate and phenol red, 20 mM HEPES, pH 7.4) using a Denley Cellwash plate washer (Labsystems). After 45 minutes of dye-loading in the dark, using the calcium-sensitive dye Fluo-4 AM at a final concentration of 2 μM, plates were washed four times with HBSS-HEPES buffer to remove excess dye leaving 100 μl in each well. Plates were re-equilibrated to 37° C. for a few minutes.
(§3) Cells were excited with an Argon laser at 488 nm, and emission was measured through a 510–570 nm bandwidth emission filter (FLIPR™, Molecular Devices, Sunnyvale, Calif.). Drug solution was added in a 50 μl volume to each well to give the desired final concentration. The peak increase in fluorescence intensity was recorded for each well. On each plate, four wells each served as negative (HBSS-HEPES buffer) and positive controls (standard agonists: BW245C (hDP); PGE2 (hEP1; hEP2/Gqs5; hEP3A/Gqi5; hEP4/Gqs5); PGF2α (hFP); carbacyclin (hIP); U-46619 (hTP), depending on receptor). The peak fluorescence change in each drug-containing well was then expressed relative to the controls.
(§4) Compounds were tested in a high-throughput (HTS) or concentration-response (CoRe) format. In the HTS format, forty-four compounds per plate were examined in duplicates at a concentration of 10^−5 M. To generate concentration-response curves, four compounds per plate were tested in duplicates in a concentration range between 10^−5 and 10^−11 M. The duplicate values were averaged. In either, HTS or CoRe format each compound was tested on at least 3 separate plates using cells from different passages to give an n≧3.

hEP3A/Gqi5 = biological target: T2, hEP3A/Gqi5 (Homo sapiens, UniProt P43115); experiment: FLIPR calcium signal, hEP3A/Gqi5; assay type: cell-based; details: HEK-293(EBNA) cells, read-out: Functional EC50 (nM) HEP3A
T2 construct: expressed in transfected cells
T2 sequence (P43115 1-390): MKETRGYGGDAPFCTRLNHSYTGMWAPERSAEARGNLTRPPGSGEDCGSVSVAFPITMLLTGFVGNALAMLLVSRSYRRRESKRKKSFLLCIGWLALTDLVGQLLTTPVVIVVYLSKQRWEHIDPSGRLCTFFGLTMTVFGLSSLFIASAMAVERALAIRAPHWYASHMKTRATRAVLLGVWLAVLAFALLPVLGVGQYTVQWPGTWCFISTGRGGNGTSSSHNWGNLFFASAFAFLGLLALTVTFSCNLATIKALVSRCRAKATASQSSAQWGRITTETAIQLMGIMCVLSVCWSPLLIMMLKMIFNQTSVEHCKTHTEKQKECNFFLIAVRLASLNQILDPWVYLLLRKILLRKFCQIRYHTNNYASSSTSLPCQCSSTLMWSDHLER
Description: as §1, §2, §3, §4

hEP1 = biological target: T3, hEP1 (Homo sapiens, UniProt P34995); experiment: FLIPR calcium signal, hEP1; assay type: cell-based; details: HEK-293(EBNA) cells, read-out: Functional EC50 (nM) HEP1
T3 construct: expressed in transfected cells
T3 sequence (P34995 1-402): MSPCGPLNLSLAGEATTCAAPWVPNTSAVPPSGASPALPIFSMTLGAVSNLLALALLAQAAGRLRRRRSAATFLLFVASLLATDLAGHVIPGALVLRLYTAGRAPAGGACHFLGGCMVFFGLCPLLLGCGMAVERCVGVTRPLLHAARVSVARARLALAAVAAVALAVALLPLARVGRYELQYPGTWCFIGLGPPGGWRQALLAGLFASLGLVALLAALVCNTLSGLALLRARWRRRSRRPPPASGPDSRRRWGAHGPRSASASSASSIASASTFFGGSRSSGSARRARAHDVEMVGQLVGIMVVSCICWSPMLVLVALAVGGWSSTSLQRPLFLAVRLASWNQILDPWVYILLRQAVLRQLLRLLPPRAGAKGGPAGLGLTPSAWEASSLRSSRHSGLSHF
Description: as §1, §2, §3, §4

HEP4 = biological target: T4, HEP4 (Homo sapiens, UniProt P35408); experiment: Radioligand binding, EP4 receptor; details: competition vs [3H]PGE2 5 nM, HEK-293 cell membranes
T4 construct: expressed in transfected cells; membrane fraction
T4 sequence (P35408 whole entry): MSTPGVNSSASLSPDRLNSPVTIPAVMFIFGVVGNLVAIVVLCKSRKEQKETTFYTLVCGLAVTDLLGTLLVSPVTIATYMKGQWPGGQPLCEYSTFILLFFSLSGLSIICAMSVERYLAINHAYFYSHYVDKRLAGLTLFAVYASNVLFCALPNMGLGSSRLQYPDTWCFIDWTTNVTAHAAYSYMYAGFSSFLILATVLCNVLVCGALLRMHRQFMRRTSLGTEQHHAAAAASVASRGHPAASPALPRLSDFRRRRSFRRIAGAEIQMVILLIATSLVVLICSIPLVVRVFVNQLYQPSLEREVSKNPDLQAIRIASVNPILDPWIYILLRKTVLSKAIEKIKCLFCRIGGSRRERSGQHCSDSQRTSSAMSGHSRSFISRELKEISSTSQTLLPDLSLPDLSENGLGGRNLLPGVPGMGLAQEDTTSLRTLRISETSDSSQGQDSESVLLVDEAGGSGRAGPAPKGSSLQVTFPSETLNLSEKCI
Description: (§5) HEK-293 cells stably expressing the human or feline FP receptor, or EP1, EP2, or EP4 receptors were washed with TME buffer, scraped from the bottom of the flasks, and homogenized for 30 sec using a Brinkman PT 10/35 polytron. TME buffer was added to achieve a final 40 ml volume in the centrifuge tubes (the composition of TME is 100 mM TRIS base, 20 mM MgCl2, […]; 10N HCl is added to achieve a pH of 7.4).
(§6) The cell homogenate was centrifuged at 19000 r.p.m. for 20 min at 4° C. using a Beckman Ti-60 rotor. The resultant pellet was resuspended in TME buffer to give a final 1 mg/ml protein concentration, as determined by Biorad assay. Radioligand binding competition assays vs. [^3H-]17-phenyl PGF2α (5 nM) were performed in a 100 μl volume for 60 min. Binding reactions were started by adding plasma membrane fraction. The reaction was terminated by the addition of 4 ml ice-cold TRIS-HCl buffer and rapid filtration through glass fiber GF/B filters using a Brandel cell harvester. The filters were washed 3 times with ice-cold buffer and oven dried for one hour. Non-specific binding was determined with 10 uM unlabeled 17-phenyl PGF2α.
[^3H-] PGE2 (5 nM; specific activity 180 Ci mmol) was used as the radioligand for EP receptors. Binding studies employing EP1, EP2, EP3, EP4 were performed in duplicate in at least three separate experiments. A 200 μl assay volume was used. Incubations were for 60 min at 25° C. and were terminated by the addition of 4 ml of ice-cold 50 mM TRIS-HCl, followed by rapid filtration through Whatman GF/B filters and three additional 4 ml washes in a cell harvester (Brandel). Non-specific binding determined with 10^−5M of unlabeled PGE2.

HEP2 = biological target: T5, HEP2 (Homo sapiens, UniProt P43116); experiment: Radioligand binding, EP2 receptor; details: competition vs [3H]PGE2 5 nM, HEK-293 cell membranes
T5 construct: expressed in transfected cells; membrane fraction
T5 sequence (P43116 whole entry): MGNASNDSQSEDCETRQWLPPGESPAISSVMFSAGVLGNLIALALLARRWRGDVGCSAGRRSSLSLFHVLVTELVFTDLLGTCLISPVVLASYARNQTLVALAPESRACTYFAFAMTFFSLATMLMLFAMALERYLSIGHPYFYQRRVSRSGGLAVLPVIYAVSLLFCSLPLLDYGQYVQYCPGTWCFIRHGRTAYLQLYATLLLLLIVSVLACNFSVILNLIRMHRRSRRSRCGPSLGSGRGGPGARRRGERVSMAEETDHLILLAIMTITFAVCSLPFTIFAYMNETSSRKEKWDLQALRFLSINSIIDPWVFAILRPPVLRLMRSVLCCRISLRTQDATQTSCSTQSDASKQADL
Description: as §5, §6
(§7) [^3H-] PGE2 (5 nM; specific activity 180 Ci mmol) was used as the radioligand for EP receptors. […] Non-specific binding determined with 10^−5M of unlabeled PGE2.

hEP2/Gqs5 = biological target: T6, hEP2/Gqs5 (Homo sapiens, UniProt P43116); experiment: FLIPR calcium signal, hEP2/Gqs5; assay type: cell-based; details: HEK-293(EBNA) cells, read-out: Functional EC50 (nM) HEP2
T6 construct: expressed in transfected cells
T6 sequence (P43116 whole entry): as above
Description: as §1, §2, §3
Compounds were tested in a high-throughput (HTS) or concentration-response (CoRe) format. […]

hTP = biological target: T7, hTP (Homo sapiens, UniProt P21731); experiment: FLIPR calcium signal, hTP; assay type: cell-based; details: HEK-293(EBNA) cells, read-out: Functional EC50 (nM) HTP
T7 construct: expressed in transfected cells
T7 sequence (P21731 1-343): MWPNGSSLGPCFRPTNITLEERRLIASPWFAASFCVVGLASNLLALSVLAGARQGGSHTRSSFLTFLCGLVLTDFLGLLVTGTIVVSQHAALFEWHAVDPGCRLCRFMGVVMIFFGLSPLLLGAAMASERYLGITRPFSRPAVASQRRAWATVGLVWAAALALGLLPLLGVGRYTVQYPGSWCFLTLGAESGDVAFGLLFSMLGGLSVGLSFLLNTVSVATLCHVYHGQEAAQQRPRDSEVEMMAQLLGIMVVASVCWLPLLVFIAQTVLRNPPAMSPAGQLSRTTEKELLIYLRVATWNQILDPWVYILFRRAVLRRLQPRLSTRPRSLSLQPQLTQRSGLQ
Description: as §1, §2, §3, §4

HEP3D = biological target: T8, HEP3D (Homo sapiens, UniProt P43115); experiment: Radioligand binding, EP3 receptor; details: competition vs [3H]PGE2 5 nM
T8 sequence (P43115 1-374 isoform P43115-4): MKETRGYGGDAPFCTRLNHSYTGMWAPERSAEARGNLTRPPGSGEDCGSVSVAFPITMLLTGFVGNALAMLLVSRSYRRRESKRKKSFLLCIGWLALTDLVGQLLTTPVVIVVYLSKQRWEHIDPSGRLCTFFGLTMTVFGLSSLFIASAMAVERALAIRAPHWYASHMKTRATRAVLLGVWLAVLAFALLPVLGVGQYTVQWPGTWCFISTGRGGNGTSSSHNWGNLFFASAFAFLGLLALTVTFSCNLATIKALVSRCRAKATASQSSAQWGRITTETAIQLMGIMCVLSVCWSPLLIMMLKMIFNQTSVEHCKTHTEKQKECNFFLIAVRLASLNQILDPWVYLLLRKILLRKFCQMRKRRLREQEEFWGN
Description: as §5, §6, §7

T1 sequence (P35408 whole entry): as the sequence (P35408 whole entry) above

SMILES	EC50 (hEP4/Gqs5) [nM]	IC50 (HEP4) [nM]	further results
C[C@@H]1CC(=O)[C@H](C/C=C\CCCC(=O)O)[C@H]1/C=C/C(O)CCc1sc2ccccc2c1Cl (some centres unmarked)	153	1800	EC50 (hEP3A/Gqi5): > 10000 nM; EC50 (hEP1): > 10000 nM
COC(=O)CCC/C=C\C[C@H]1C(=O)C[C@@H](C)[C@@H]1/C=C/C(O)CCc1sc2ccccc2c1Cl (some centres unmarked)	> 10000	> 10000	–
COC(=O)CCC/C=C\C[C@H]1C(=O)C[C@@H](C(C)C)[C@@H]1/C=C/C(O)CCc1sc2ccccc2c1Cl (some centres unmarked)	–	> 10000	–
CC(C)[C@@H]1CC(=O)[C@H](C/C=C\CCCC(=O)O)[C@H]1/C=C/C(O)CCc1sc2ccccc2c1Cl (some centres unmarked)	> 10000	> 10000	–
CC[C@@H]1CC(=O)[C@H](C/C=C\CCCC(=O)O)[C@H]1/C=C/C(O)CCc1sc2ccccc2c1Cl (some centres unmarked)	708	2100	–
C=C[C@@H]1CC(=O)[C@H](C/C=C\CCCC(=O)O)[C@H]1/C=C/C(O)CCc1sc2ccccc2c1Cl (some centres unmarked)	156	650	IC50 (HEP2): > 10000 nM
C=C[C@@H]1CC(=O)[C@H](C/C=C\CCCC(=O)OC)[C@H]1/C=C/C(O)CCc1sc2ccccc2c1Cl (some centres unmarked)	1700	> 10000	–
CC[C@@H]1CC(=O)[C@H](C/C=C\CCCC(=O)OC)[C@H]1/C=C/C(O)CCc1sc2ccccc2c1Cl (some centres unmarked)	–	> 10000	–
O=C(O)CCC/C=C\C[C@H]1C(=O)C[C@@H](CO)[C@@H]1/C=C/C(O)Cc1cc2ccccc2s1 (single isomer, unassigned) [drawing 36]	> 10000	–	EC50 (hEP2/Gqs5): > 10000 nM; EC50 (hEP3A/Gqi5): > 10000 nM; EC50 (hEP1): > 10000 nM; EC50 (hTP): > 10000 nM
O=C(O)CCC/C=C\C[C@H]1C(=O)C[C@@H](CO)[C@@H]1/C=C/C(O)Cc1cc2ccccc2s1 (single isomer, unassigned) [drawing 37]	1770	–	EC50 (hEP2/Gqs5): > 10000 nM; EC50 (hEP3A/Gqi5): 99 nM; EC50 (hEP1): 9 nM
COC(=O)CCC/C=C\C[C@H]1C(=O)C[C@@H](CO)[C@@H]1/C=C/C(O)CCc1sc2ccccc2c1Cl (some centres unmarked) [drawing 30]	> 10000	–	–
COC(=O)CCC/C=C\C[C@H]1C(=O)C[C@@H](CO)[C@@H]1/C=C/C(O)CCc1sc2ccccc2c1Cl (some centres unmarked) [drawing 31]	> 10000	–	–
O=C(O)CCC/C=C\C[C@H]1C(=O)C[C@@H](CO)[C@@H]1/C=C/C(O)CCc1sc2ccccc2c1Cl (some centres unmarked) [drawing 32]	1240	–	–
O=C(O)CCC/C=C\C[C@H]1C(=O)C[C@@H](CO)[C@@H]1/C=C/C(O)CCc1sc2ccccc2c1Cl (some centres unmarked) [drawing 33]	1790	–	–
COC(=O)CCC/C=C\C[C@H]1C(=O)C[C@@H](CO)[C@@H]1/C=C/C(O)Cc1cc2ccccc2s1 (some centres unmarked) [drawing 34]	> 10000	–	EC50 (hEP1): > 10000 nM; EC50 (hTP): > 10000 nM
COC(=O)CCC/C=C\C[C@H]1C(=O)C[C@@H](CO)[C@@H]1/C=C/C(O)Cc1cc2ccccc2s1 (some centres unmarked) [drawing 35]	> 10000	–	EC50 (hEP2/Gqs5): > 10000 nM; EC50 (hEP3A/Gqi5): 9000 nM; EC50 (hEP1): > 10000 nM; EC50 (hTP): > 10000 nM
COC(=O)CCC/C=C\C[C@H]1C(=O)CC[C@@H]1/C=C/C(O)CCc1sc2ccccc2c1Cl (some centres unmarked) [drawing 38]	515	–	–
COC(=O)CCC/C=C\C[C@H]1C(=O)CC[C@@H]1/C=C/C(O)CCc1sc2ccccc2c1Cl (some centres unmarked) [drawing 39]	862	–	EC50 (hTP): > 10000 nM
O=C(O)CCC/C=C\C[C@H]1C(=O)CC[C@@H]1/C=C/C(O)CCc1sc2ccccc2c1Cl (some centres unmarked) [drawing 40]	11	150	IC50 (HEP2): > 10000 nM; IC50 (HEP3D): 6000 nM
O=C(O)CCC/C=C\C[C@H]1C(=O)CC[C@@H]1/C=C/C(O)CCc1sc2ccccc2c1Cl (some centres unmarked) [drawing 41]	25	110	EC50 (hEP3A/Gqi5): > 10000 nM; IC50 (HEP3D): 3700 nM; EC50 (hTP): > 10000 nM
